The record followed here is patent publication US20110105397A1, “METHOD FOR TREATING HEART FAILURE WITH STRESSCOPIN-LIKE PEPTIDES” (priority 2009, published 2011).

Where “and” joins values, the source holds several entries; their conditions need not be identical. Identical values can stand only once. Like-named read-outs stand apart in the source and are kept apart here.

One assay deals with T1, human CRHR2 (Homo sapiens, UniProt Q13324).
T1 construct: expressed in transfected cells
T1 sequence (Q13324 1-411): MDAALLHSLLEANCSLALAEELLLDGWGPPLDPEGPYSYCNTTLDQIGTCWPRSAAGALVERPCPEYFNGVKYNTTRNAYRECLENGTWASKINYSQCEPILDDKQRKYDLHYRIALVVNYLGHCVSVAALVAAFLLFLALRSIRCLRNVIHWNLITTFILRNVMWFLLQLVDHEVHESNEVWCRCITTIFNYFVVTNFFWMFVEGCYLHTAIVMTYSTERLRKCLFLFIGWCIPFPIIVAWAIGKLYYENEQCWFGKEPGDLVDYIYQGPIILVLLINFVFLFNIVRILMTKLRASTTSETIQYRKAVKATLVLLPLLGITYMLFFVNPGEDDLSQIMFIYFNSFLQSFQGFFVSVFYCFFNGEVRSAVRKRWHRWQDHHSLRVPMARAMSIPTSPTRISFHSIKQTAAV
Kind of assay: cAMP assay, h-CRHR2 transfected SK-N-MC cells. The class given is cell-based. Particulars: for nH (Hill slope) / αmax (maximal asymptote): h-CRHR2; for αmax (maximal asymptote): in %. In outline: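 SK-N-MC cells stably expressing human CRHR2 were treated with peptides (1 pM to 1 μM) for 60 min at 37 °C in IBMX-containing medium, with 10 μM forskolin as positive control. Cells were lysed with 0.5 M HCl and cAMP measured by [125I]-cAMP competition flash plate. A50 came from Hill-equation fits, normalised to h-SCP maximum.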

Another assay has as its target T2, CRHR1 (Homo sapiens, UniProt P34998).
T2 sequence (P34998 24-415): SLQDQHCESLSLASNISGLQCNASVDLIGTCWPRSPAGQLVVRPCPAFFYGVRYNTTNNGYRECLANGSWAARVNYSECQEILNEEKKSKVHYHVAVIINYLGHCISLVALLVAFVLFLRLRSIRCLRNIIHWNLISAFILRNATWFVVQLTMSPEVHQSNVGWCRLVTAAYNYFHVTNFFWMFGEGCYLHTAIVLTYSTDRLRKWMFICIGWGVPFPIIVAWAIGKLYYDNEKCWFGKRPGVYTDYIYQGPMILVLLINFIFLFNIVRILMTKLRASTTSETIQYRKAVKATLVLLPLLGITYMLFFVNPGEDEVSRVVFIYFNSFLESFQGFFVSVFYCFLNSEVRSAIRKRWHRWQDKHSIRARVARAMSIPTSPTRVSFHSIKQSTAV
The assay can be described thus: cAMP assay, h-CRHR1 transfected SK-N-MC cells. Particulars: Table 11; for EC50: h-CRHR1 transfected SK-N-MC cells, 1 hr at 37° Celsius, read-out: pA50 (Experimental) (converted). The arrangement: expressed in transfected cells. It counts as cell-based. How it is done:
Human CRHR1 (accession number X72304) or CRHR2 (accession number U34587) were cloned into pcDNA3.1/Zeo expression vector and stably transfected into SK—N-MC cells by electroporation. Cells were maintained in MEM w/Earl's Salt with 10% FBS, 50 I.U. penicillin, 50 μg/ml streptomycin, 2 mM L-glutamine, 1 mM sodium pyruvate and 0.1 mM non-essential amino acids, 600 μg/ml G418. Cells were grown at 37° C. in 5% CO2
Cells were plated in 96-well tissue culture dishes (Biocoat from BD Biosciences) overnight at 50,000 cell/well. Cells were washed with PBS then resuspended in DMEM F-12 without phenol red, containing 10 μM isobutylmethylxanthine (IBMX). Cells were incubated with the peptides at concentrations ranging from 1 pM to 10 μM for 60 min at 37° Celsius. […] Forskolin (10 μM), a direct stimulant of adenylate cyclase, was used as positive control. The assays were stopped by the addition of 0.5 M HCl and mixing by orbital rotation for 2 h at 4° Celsius.
Transfected SK—N-MC cells were plated in 96-well Biocoat tissue culture dishes (BD Biosciences, San Jose, Calif., U.S.A) overnight at 50,000 cell/well. Cells were first washed with PBS and then suspended with DMEM/F-12 without phenol red, containing […]. Suspended cells were transferred into a 96-well flash plate coated with scintillant fluid. Cells were incubated with peptides ranging from 1 pM to 1 μM, for 60 min, at 37° Celsius. Forskolin at 10 μM was used as positive control. After ligand stimulation, cells were lysed by the addition of 0.5M HCl and mixed by orbital rotation for 2 h at 4° Celsius in order to release intracellular cAMP into the media.
Media containing released intracellular cAMP was transferred to a 96-well flash plate coated with scintillant fluid containing an anti-cAMP antibody. […] To generate a standard curve, cAMP ranging from 2.5 to 250 pmoles/ml was included in the experiment.
Individual agonist concentration-response curve data were fitted to the Hill equation, see formula below, using GraphPad Prism (Graphpad Software, La Jolla, Calif., U.S.A.), to provide estimates of agonist concentration needed to generate one-half maximal response (A50), and the maximal asymptote (α) and Hill slope (nH) parameters. In this equation, [A] is the agonist concentration and E is the measured effect:
For display purposes the mean fitted parameter estimates were used to generate a single E/[A] curve shown superimposed on the mean experimental data. Potency estimates for agonists, pA50, are expressed as the negative logarithm of the midpoint of each curve and listed with their standard error of measurement (SEM).
Human and rat peptides (see Table 10) were used on the stimulation of h-CRHR1 or h-CRHR2 transfected SK—N-MC cells in the cAMP flash plate assay. Peptides were incubated for 1 hr at 37° Celsius. Curves were calculated using non-linear regression sigmoidal concentration-response analysis calculation in GraphPad Prism.

Setting [1] is: Table 11, h-CRHR2 transfected SK-N-MC cells, 1 hr at 37° Celsius, read-out: pA50 (Experimental) (converted).

As to “H-HPGSRIVLSLDVPIGLLQILLEQARARAAREQATTNARILARV-NH2 [SEQ ID NO: 117, HPGSRIVLSLDVPIGLLQILLEQARARAAREQATTNARILARV-NH2, reference compound]”, the “nH (Hill slope)” value at human CRHR2 (Table 11, listed as h-SRP) was 1.08 and 1.06 and 0.99; at CRHR1 (h-CRHR1, listed as h-SRP) it was 1.61 and 1.33 and 1.26. Moreover, on human CRHR2 (Table 11, listed as h-SRP), the “αmax (maximal asymptote)” value was 113.5 and 108.7 and 98.56. Further, the EC50 on human CRHR2 (setting [1]) is 0.479 nM and 0.263 nM and 0.589 nM; at CRHR1 it was 457 nM and 631 nM and 525 nM.
In the case of `CC[C@H](C)[C@H](NC(=O)[C@H](CO)NC(=O)[C@H](CC(C)C)NC(=O)[C@@H]1CCCN1C(=O)[C@@H]1CCCN1C(=O)[C@H](CC(=O)O)NC(=O)[C@@H](N)CC(=O)O)C(=O)N[C@@H](CC(=O)O)C(=O)N[C@@H](CC(C)C)C(=O)N[C@H](C(=O)N[C@@H](Cc1ccccc1)C(=O)N[C@@H](Cc1c[nH]cn1)C(=O)N[C@@H](CC(C)C)C(=O)N[C@@H](CC(C)C)C(=O)N[C@@H](CCCNC(=N)N)C(=O)N[C@H](C(=O)N[C@@H](CC(C)C)C(=O)N[C@@H](CC(C)C)C(=O)N[C@@H](CCC(=O)O)C(=O)N[C@@H](CC(C)C)C(=O)N[C@@H](C)C(=O)N[C@@H](CCCNC(=N)N)C(=O)N[C@H](C(=O)N[C@@H](CCC(N)=O)C(=O)N[C@@H](CO)C(=O)N[C@@H](CCC(N)=O)C(=O)N[C@@H](CCCNC(=N)N)C(=O)N[C@@H](CCC(=O)O)C(=O)N[C@@H](CCCNC(=N)N)C(=O)N[C@@H](C)C(=O)N[C@@H](CCC(=O)O)C(=O)N[C@@H](CCC(N)=O)C(=O)N[C@@H](CC(N)=O)C(=O)N[C@@H](CCCNC(=N)N)C(=O)N[C@H](C(=O)N[C@H](C(=O)N[C@@H](Cc1ccccc1)C(=O)N[C@@H](CC(=O)O)C(=O)N[C@@H](CO)C(=O)N[C@H](C(N)=O)C(C)C)[C@@H](C)CC)[C@@H](C)CC)[C@@H](C)O)[C@@H](C)O)[C@@H](C)O` [SEQ ID NO: 114, DDPPLSIDLTFHLLRTLLELARTQSQRERAEQNRIIFDSV-NH2], the “nH (Hill slope)” value on human CRHR2 (Table 11) is 1.07; on CRHR1 (h-CRHR1), 1.15. The “αmax (maximal asymptote)” value turned out to be 110.5 on human CRHR2 (Table 11) and 99.61 at CRHR1 (h-CRHR1). Further, at human CRHR2 (setting [1]), the EC50 is 0.832 nM.
On to “H-TKFTLSLDVPTNIMNLLFNIAKAKNLRAQAAANAHLMAQI-NH2 [SEQ ID NO: 1, TKFTLSLDVPTNIMNLLFNIAKAKNLRAQAAANAHLMAQI-NH2]”, for which the “nH (Hill slope)” value on human CRHR2 (Table 11, listed as h-SCP) was 0.99 and 1.04 and 1.39 and 1.55. Moreover, the “αmax (maximal asymptote)” value at human CRHR2 (Table 11, listed as h-SCP) was 99.31 and 97.53 and 116.1 and 98.2. In addition, the EC50 at human CRHR2 (setting [1]) was 0.389 nM and 0.708 nM and 0.437 nM and 0.407 nM; on human CRHR2 (Table 13, cysteine mutation, N-ethylmaleimide capping, pegylation, read-out: pA50 (converted)) it was 0.182 to 0.339 nM; at human CRHR2 (Table 14, read-out: pA50 (converted)), 0.398 nM; at CRHR1, greater than 10000 nM. In addition, the nH on human CRHR2 (Table 12) stood at 1.18; at human CRHR2 (Table 14), 1.26. The αmax was 98.68 on human CRHR2 (Table 12, normalized to the maximum response to h-SCP) and 100.1% at human CRHR2 (Table 14, % of the maximum response obtained to h-SCP).
